Source: patent US8003660B2, “Modulators of muscarinic receptors” (Vertex Pharmaceuticals Incorporated, priority 2006, dated 2011)

Tests used:
Format in all cases: cell-based
M4 muscarinic receptor = molecular target: T1, M4 muscarinic receptor (Homo sapiens, UniProt P08173); experiment: Functional mobilization of intracellular calcium (FLIPR) in CHO cells expressing M4; details: for M4 Activity: CHO cells expressing M4, FLIPR calcium assay; for Emax: CHO, 100% efficacy = maximum response obtained with the Carbachol control
T1 construct: expressed in transfected cells; host or cells: CHO (M4-CHO)
T1 sequence (P08173 1-479): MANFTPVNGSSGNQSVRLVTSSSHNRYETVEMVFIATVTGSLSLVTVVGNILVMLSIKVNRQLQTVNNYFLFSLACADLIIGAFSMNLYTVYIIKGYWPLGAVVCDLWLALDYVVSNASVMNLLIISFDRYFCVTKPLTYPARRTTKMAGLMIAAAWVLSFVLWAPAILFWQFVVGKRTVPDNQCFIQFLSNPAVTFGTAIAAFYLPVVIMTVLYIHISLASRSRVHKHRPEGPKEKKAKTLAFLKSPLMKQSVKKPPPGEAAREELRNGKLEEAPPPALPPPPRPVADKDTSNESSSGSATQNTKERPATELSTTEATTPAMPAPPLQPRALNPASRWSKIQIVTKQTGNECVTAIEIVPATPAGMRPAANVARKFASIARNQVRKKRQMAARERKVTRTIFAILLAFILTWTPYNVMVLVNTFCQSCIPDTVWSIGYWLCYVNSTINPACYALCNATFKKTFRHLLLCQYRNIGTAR
In short: (§1)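 Recombinant CHO cells loaded with Fluo-3 AM or Calcium 3 dye in pH 7.4 buffer containing 1 mM probenecid, with 0.5% final DMSO. For agonism, compound is added directly. For inhibition, it is preincubated 15 min, or co-applied, before carbachol at EC80. FLIPR fluorescence (ex 488, em 540 nm) is recorded for 60 s.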

M1 muscarinic receptor = molecular target: T2, M1 muscarinic receptor (Homo sapiens, UniProt P11229); experiment: Functional mobilization of intracellular calcium (FLIPR) in CHO cells expressing M1; details: for M1 Activity: CHO cells expressing M1, FLIPR calcium assay; for Emax: CHO, 100% efficacy = maximum response obtained with the Carbachol control
T2 construct: expressed in transfected cells; host or cells: CHO (M1-CHO)
T2 sequence (P11229 1-460): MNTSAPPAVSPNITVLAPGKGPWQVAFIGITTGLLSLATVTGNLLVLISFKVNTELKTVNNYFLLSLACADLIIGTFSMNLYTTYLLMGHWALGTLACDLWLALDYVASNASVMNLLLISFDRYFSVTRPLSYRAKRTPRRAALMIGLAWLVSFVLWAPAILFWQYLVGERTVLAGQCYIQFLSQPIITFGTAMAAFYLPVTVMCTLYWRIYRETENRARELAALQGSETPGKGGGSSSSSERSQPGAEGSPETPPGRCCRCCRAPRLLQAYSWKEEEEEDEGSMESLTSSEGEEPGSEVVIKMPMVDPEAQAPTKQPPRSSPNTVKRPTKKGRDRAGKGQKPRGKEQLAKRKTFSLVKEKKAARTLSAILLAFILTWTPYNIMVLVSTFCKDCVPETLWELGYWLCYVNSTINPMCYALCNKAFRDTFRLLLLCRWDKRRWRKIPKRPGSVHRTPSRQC
In short: as §1

M3 muscarinic receptor = molecular target: T3, M3 muscarinic receptor (Homo sapiens, UniProt P20309); experiment: Functional mobilization of intracellular calcium (FLIPR) in CHO cells expressing M3; details: for M3 Activity: CHO cells expressing M3, FLIPR calcium assay; for Emax: CHO, 100% efficacy = maximum response obtained with the Carbachol control
T3 construct: expressed in transfected cells; host or cells: CHO (M3-CHO)
T3 sequence (P20309 whole entry): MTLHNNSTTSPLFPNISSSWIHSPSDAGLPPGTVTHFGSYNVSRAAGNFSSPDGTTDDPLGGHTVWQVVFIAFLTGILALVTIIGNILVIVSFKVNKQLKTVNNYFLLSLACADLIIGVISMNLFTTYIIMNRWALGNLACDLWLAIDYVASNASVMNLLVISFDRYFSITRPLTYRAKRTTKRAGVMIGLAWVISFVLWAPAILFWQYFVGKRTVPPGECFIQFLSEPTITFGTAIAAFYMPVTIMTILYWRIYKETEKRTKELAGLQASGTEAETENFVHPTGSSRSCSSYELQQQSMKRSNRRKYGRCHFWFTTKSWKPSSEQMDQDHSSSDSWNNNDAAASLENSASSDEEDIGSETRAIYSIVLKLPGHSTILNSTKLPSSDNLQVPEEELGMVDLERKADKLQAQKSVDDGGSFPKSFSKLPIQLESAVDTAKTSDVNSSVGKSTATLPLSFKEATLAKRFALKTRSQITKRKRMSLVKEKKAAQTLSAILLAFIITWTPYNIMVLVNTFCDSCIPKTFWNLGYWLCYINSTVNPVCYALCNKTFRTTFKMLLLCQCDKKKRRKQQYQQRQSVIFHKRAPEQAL
In short: as §1

M2 muscarinic receptor = molecular target: T4, M2 muscarinic receptor (Homo sapiens, UniProt P08172); experiment: Functional mobilization of intracellular calcium (FLIPR) in CHO cells expressing M2; details: for M2 Activity: CHO cells expressing M2, FLIPR calcium assay; for Emax: CHO, 100% efficacy = maximum response obtained with the Carbachol control
T4 construct: expressed in transfected cells; host or cells: CHO (M2-CHO)
T4 sequence (P08172 1-466): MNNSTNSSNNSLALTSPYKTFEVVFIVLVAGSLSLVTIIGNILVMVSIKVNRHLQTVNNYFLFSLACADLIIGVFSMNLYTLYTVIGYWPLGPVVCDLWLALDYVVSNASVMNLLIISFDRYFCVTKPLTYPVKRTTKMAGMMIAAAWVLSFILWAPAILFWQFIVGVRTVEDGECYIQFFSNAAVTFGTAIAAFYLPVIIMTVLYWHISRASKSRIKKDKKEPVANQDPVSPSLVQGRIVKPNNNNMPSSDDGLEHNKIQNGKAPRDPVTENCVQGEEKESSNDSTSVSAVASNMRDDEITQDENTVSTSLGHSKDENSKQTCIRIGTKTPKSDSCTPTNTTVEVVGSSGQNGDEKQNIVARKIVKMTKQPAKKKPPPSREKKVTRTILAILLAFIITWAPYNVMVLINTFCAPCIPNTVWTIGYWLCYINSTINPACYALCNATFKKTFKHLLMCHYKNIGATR
In short: as §1

Row | SMILES | M4 Activity (M4 muscarinic receptor) | Emax (M4 muscarinic receptor) [%] | M1 Activity (M1 muscarinic receptor) | Emax (M1 muscarinic receptor) [%] | M3 Activity (M3 muscarinic receptor) | Emax (M3 muscarinic receptor) [%] | M2 Activity (M2 muscarinic receptor) | Emax (M2 muscarinic receptor) [%]
1 | C#CCNC(=O)CN1CCC2(CC1)C[C@H](NC(C)=O)c1ccccc12 [compound 262] | + (activity was measured to be greater than 5.0 μM) | < 25 | + (activity was measured to be greater than 5.0 μM) | < 25 | + (activity was measured to be greater than 5.0 μM) | < 25 | + (activity was measured to be greater than 5.0 μM) | < 25
2 | C=CCC(C)(C)CN1CCC2(CC1)C[C@H](NC(C)=O)c1ccccc12 [compound 263] | ++ (activity was measured to be from 2.0 μM to 5.0 μM) | < 25 | + (activity was measured to be greater than 5.0 μM) | 25 to 100 | + (activity was measured to be greater than 5.0 μM) | < 25 | + (activity was measured to be greater than 5.0 μM) | < 25
3 | CCCC(=O)N[C@H]1CC2(CCN(CCC(C)(C)C)CC2)c2ccccc21 [compound 264] | +++ (activity was measured to be less than 2.0 μM) | 25 to 100 | + (activity was measured to be greater than 5.0 μM) | < 25 | + (activity was measured to be greater than 5.0 μM) | < 25 | + (activity was measured to be greater than 5.0 μM) | < 25
4 | CC(C)CCN1CCC2(CC1)C[C@H](NC(=O)c1ccoc1)c1ccccc12 [compound 267] | + (activity was measured to be greater than 5.0 μM) | < 25 | + (activity was measured to be greater than 5.0 μM) | < 25 | + (activity was measured to be greater than 5.0 μM) | < 25 | + (activity was measured to be greater than 5.0 μM) | < 25
5 | CCC(CC)(CCC#N)CN1CCC2(CC1)C[C@H](NC(C)=O)c1ccccc12 [compound 269] | ++ (activity was measured to be from 2.0 μM to 5.0 μM) | 25 to 100 | + (activity was measured to be greater than 5.0 μM) | 25 to 100 | + (activity was measured to be greater than 5.0 μM) | < 25 | + (activity was measured to be greater than 5.0 μM) | < 25
6 | CCC(=O)N[C@H]1CC2(CCN(C(=O)OC(C)(C)C)CC2)c2ccccc21 [compound 271] | + (activity was measured to be greater than 5.0 μM) | < 25 | + (activity was measured to be greater than 5.0 μM) | < 25 | + (activity was measured to be greater than 5.0 μM) | < 25 | + (activity was measured to be greater than 5.0 μM) | < 25
7 | CC(=O)N[C@H]1CCC2(CCN(C(=O)OC(C)(C)C)CC2)c2ccccc21 [compound 272] | + (activity was measured to be greater than 5.0 μM) | < 25 | + (activity was measured to be greater than 5.0 μM) | < 25 | + (activity was measured to be greater than 5.0 μM) | < 25 | + (activity was measured to be greater than 5.0 μM) | < 25
8 | CC(=O)N[C@H]1CC2(CCN(CC(C)CCC=C(C)C)CC2)c2ccccc21 (stereo partly shown) [compound 273] | +++ (activity was measured to be less than 2.0 μM) | 25 to 100 | +++ (activity was measured to be less than 2.0 μM) | 25 to 100 | + (activity was measured to be greater than 5.0 μM) | < 25 | + (activity was measured to be greater than 5.0 μM) | < 25
